Reference: ChEMBL document CHEMBL6109084 (Eur J Med Chem, 2025)
Calls of active or inactive are those of the source. No cut-off for these calls is given here.

Experiments:
[1] = Acute toxicity in C57BL/6J mouse assessed as effect on serum ALT level at 60 to 100 mg/kg, po administered as single dose for 14 days; type: organism-based; conditions: in vivo, 336 h, dose 60-100 mg/kg, time 14 day
[2] = Selectivity index, ratio of IC50 for inhibition of plasmin (unknown origin) using PyroGlu-Phe-Lys-pNA.HCl as substrate to IC50 for inhibition of human FXIa using p-Glu-Pro-Arg-pNA.HCl as substrate
HepG2 = assay: Cytotoxicity against human HepG2 cells assessed as reduction in cell viability at 1 to 50 uM incubated for 24 hrs by MTT assay; type: toxicity, cell-based; conditions: hepg2, 24 h, dose 1-50 µM
Oryctolagus cuniculus [3] = assay: Antithrombotic activity in FeCl3-induced carotid arterial thrombosis male New Zealand white rabbits model assessed as reduction in wet thrombus weight at 6 mg/kg, iv preincubated for 30 mins followed by FeCl3 application for 5 mins and measured after 30 mins relative to control; type: functional, organism-based; conditions: time 65.0 min
[4] = Acute toxicity in C57BL/6J mouse assessed as allergic reactions at 60 to 100 mg/kg, po administered as single dose for 14 days; type: organism-based; conditions: in vivo, 336 h, dose 60-100 mg/kg, time 14 day
Plasma = assay: Anticoagulant activity in citrated human plasma assessed as prolongation of prothrombin time incubated for 3 mins by PT reagent based automated coagulometric analysis; type: functional, cell-free
[5] = Acute toxicity in C57BL/6J mouse assessed as effect on spleen weight at 60 to 100 mg/kg, po measured after 24 hrs; type: organism-based; conditions: in vivo, dose 60-100 mg/kg
Oryctolagus cuniculus [6] = assay: Antithrombotic activity in FeCl3-induced carotid arterial thrombosis male New Zealand white rabbits model assessed as reduction in dry thrombus weight at 6 mg/kg, iv preincubated for 30 mins followed by FeCl3 application for 5 and measured after 45 mins relative to control; type: functional, organism-based; conditions: time 80.0 min
[7] = Acute toxicity in C57BL/6J mouse assessed as pathological changes in heart at 60 to 100 mg/kg, po administered as single dose for 14 days by H and E staining based analysis; type: organism-based; conditions: in vivo, 336 h, dose 60-100 mg/kg, time 14 day
[8] = Acute toxicity in C57BL/6J mouse assessed as effect on kidney weight at 60 to 100 mg/kg, po measured after 24 hrs; type: organism-based; conditions: in vivo, dose 60-100 mg/kg
[9] = Toxicity in male New Zealand white rabbit assessed as prolongation of bleeding time at 2 to 6 mg/kg, iv by ear bleeding assay; type: organism-based, Oryctolagus cuniculus; conditions: in vivo, dose 2-6 mg/kg
Coagulation factor XII = molecular target: T1, Coagulation factor XII (Homo sapiens, UniProt P00748); assay: Inhibition of FXIIa (unknown origin) using H-D-ProPhe-Arg-pNA.2HCl as substrate incubated for 30 mins followed by substrate addition and measured after 60 mins by microplate reader analysis
T1 sequence (P00748 whole entry): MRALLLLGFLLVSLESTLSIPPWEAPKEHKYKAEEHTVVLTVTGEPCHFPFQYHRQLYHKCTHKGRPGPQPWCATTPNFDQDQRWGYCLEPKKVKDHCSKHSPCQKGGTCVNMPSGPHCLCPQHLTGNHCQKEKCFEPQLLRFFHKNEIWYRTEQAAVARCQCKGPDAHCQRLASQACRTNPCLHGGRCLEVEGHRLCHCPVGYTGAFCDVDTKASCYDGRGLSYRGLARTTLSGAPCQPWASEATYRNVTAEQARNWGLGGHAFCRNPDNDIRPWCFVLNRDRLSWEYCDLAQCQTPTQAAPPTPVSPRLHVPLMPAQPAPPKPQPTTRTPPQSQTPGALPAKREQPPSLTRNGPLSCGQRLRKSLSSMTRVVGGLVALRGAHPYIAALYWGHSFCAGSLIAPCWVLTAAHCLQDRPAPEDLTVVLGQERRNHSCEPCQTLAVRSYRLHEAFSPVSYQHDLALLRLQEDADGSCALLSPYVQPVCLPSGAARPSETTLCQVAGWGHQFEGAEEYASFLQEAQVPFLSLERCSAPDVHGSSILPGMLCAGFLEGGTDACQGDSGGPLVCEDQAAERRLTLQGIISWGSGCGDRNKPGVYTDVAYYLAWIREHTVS

Prothrombin = Prothrombin (Homo sapiens, UniProt P00734); assay: Inhibition of thrombin (unknown origin) using H-D-Phe-Pip-Arg-pNA.2HCl as substrate incubated for 30 mins followed by substrate addition and measured after 60 mins by microplate reader analysis
[10] = Cytotoxicity against human AC16 [Human hybrid] cells assessed as reduction in cell viability at 1 to 50 uM incubated for 24 hrs by MTT assay; type: toxicity, cell-based; conditions: dose 1-50 µM
Mus musculus [11] = assay: Antithrombotic activity in FeCl3-induced carotid arterial thrombosis C57BL/6J mouse model assessed as increase in blood flow velocity at 10 mg/kg, po measured after 2 to 4 hrs; type: functional, organism-based; conditions: time 2-4 hrs
[12] = Acute toxicity in C57BL/6J mouse assessed as effect on liver weight at 60 to 100 mg/kg, po measured after 24 hrs; type: organism-based; conditions: in vivo, dose 60-100 mg/kg
[13] = Metabolic stability in human liver microsome assessed as half life; type: ADME; conditions: liver microsomes
[14] = Acute toxicity in C57BL/6J mouse assessed as effect on serum aspartate aminotransferase level at 60 to 100 mg/kg, po measured after 24 hrs; type: organism-based; conditions: in vivo, dose 60-100 mg/kg
[15] = Selectivity index, ratio of IC50 for inhibition of tPA (unknown origin) using H-D-Ile-Pro-Arg-pNA-2HCl as substrate to IC50 for inhibition of human FXIa using p-Glu-Pro-Arg-pNA.HCl as substrate
[16] = Acute toxicity in C57BL/6J mouse assessed as effect on serum ALP level at 60 to 100 mg/kg, po administered as single dose for 14 days; type: organism-based; conditions: in vivo, 336 h, dose 60-100 mg/kg, time 14 day
HK-2 = assay: Cytotoxicity against human HK-2 cells assessed as reduction in cell viability at 1 to 50 uM incubated for 24 hrs by MTT assay; type: toxicity, cell-based; conditions: hk-2, 24 h, dose 1-50 µM
Coagulation factor XI = Coagulation factor XI (Homo sapiens, UniProt P03951); assay: Inhibition of human FXIa using p-Glu-Pro-Arg-pNA.HCl as substrate incubated for 30 mins followed by substrate addition and measured after 60 mins by microplate reader analysis
Trypsin = Trypsin (Homo sapiens, UniProt P07477+P07478+P35030); assay: Inhibition of trypsin (unknown origin) using Bz-Ile-Glu(gamma-OR)-Gly-Arg-pNA.HCl as substrate incubated for 30 mins followed by substrate addition and measured after 60 mins by microplate reader analysis; type: protein assay
Mus musculus [17] = assay: Antithrombotic activity in FeCl3-induced carotid arterial thrombosis C57BL/6J mouse model assessed as increase in blood flow velocity at 10 mg/kg, po measured after 0.5 to 4 hrs; type: functional, organism-based; conditions: time 0.5-4 hrs
Mus musculus [18] = assay: Antithrombotic activity in po dosed FeCl3-induced carotid arterial thrombosis C57BL/6J mouse model assessed as increase in peak velocity measured after 0.5 hrs; type: functional, organism-based; conditions: dose 5-30 mg/kg
[19] = Acute toxicity in C57BL/6J mouse assessed as pathological changes in spleen at 60 to 100 mg/kg, po administered as single dose for 14 days by H and E staining based analysis; type: organism-based; conditions: in vivo, 336 h, dose 60-100 mg/kg, time 14 day

Chain of Coagulation factor XI (P03951 19-387 limits assumed): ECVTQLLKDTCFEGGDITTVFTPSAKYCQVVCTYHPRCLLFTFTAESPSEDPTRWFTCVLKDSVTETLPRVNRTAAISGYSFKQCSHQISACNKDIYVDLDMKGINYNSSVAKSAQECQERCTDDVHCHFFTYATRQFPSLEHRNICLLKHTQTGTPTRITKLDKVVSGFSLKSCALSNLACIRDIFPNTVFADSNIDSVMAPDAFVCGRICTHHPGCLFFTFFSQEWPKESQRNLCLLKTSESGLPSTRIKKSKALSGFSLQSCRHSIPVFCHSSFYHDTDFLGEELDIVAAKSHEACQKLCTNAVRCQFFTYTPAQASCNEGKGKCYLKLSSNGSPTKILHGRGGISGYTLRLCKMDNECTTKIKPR
Chain of Coagulation factor XI (P03951 388-625 limits assumed): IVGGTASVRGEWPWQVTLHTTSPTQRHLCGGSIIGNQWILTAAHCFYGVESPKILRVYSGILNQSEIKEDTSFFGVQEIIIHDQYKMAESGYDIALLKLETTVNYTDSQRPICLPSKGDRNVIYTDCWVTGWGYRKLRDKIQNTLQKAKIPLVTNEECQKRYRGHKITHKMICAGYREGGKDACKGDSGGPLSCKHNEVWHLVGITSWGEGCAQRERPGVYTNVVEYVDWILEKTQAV

SMILES: COc1cn(Cc2cc(-c3ccc(N)nc3F)ccn2)c(=O)cc1-c1cc(Cl)ccc1-n1cnnn1
- Activity [1]: Non-toxic
- Ratio IC50 [2]: > 1000
- Activity (HepG2): Non-toxic
- Activity (Oryctolagus cuniculus [3]): Active; Outperformed Asundexian Reducing Thrombus Weight
- Activity [4]: Non-toxic
- Activity (Plasma): inactive
- Activity [5]: Non-toxic
- Activity (Oryctolagus cuniculus [6]): Active
- Activity [7]: Non-toxic
- Activity [8]: Non-toxic
- Activity [9]: Non-toxic
- IC50 (Coagulation factor XII): > 1000 nM
- IC50 (Prothrombin): > 1000 nM
- Activity [10]: Non-toxic
- Activity (Mus musculus [11]): Active; Pronounced Increase Observed Compared To Compound F
- Activity [12]: Non-toxic
- half-life [13]: > 3 h
- Activity [14]: Non-toxic
- Ratio IC50 [15]: > 1000
- Activity [16]: Non-toxic
- Activity (HK-2): Non-toxic
- IC50 (Coagulation factor XI): 0.19 nM
- IC50 (Trypsin): > 1000 nM
- Activity (Mus musculus [17]): Active
- Activity (Mus musculus [18]): Dose-dependent-effect
- Activity [19]: Non-toxic
